The values below come from patent US6683077B2, “2-Amino-benzoxazinones for the treatment of viral infections” (G.D. Searle & Co., priority 1996, dated 2004).

Assay [1] has as its target T1, Human leukocyte elastase (HLE) (Homo sapiens, UniProt P08246).
T1 construct: gift of R. Senior, Washington University
T1 sequence (P08246 30-267): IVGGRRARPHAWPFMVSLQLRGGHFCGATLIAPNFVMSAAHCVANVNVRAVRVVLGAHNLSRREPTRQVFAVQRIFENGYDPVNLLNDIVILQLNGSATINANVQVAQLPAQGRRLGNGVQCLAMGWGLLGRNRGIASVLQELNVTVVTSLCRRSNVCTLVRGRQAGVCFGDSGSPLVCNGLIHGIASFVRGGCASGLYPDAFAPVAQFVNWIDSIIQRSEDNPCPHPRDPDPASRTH
Nature of the assay: Human leukocyte elastase assay. The class given is biochemical. As to the method:
Human leukocyte elastase (HLE) (gift of R. Senior, Washington University) was dissolved in saline at 1 mg/ml and further diluted 1/20 in assay buffer (0.2 M Tris, pH 8.0) before use. 10 μl of test compound in DMSO (or DMSO alone), 100 μl of assay buffer and 50 μl of enzyme were added to 96 well plates, mixed and pre-incubated for 30 minutes at ambient temperature. Reaction was initiated by addition of 40 μl of 2.5 mM methoxysuccinyl-Ala-Ala-Pro-Val-p-nitroanilide (Sigma; 25 mM in DMSO diluted 1/10 in assay buffer before use). The increase in absorbance at 405 nm was monitored for 10 minutes with a Biotek EL340 plate reader.

In assay [2] the test system is HCMV engineered virus RC256. In words: microbe, parasite or virus in culture. The class given is cell-based, human cytomegalovirus. Particulars: Human betaherpesvirus 5, Fibroblast, read-out: Antiviral Activity RC256, first value (EC50).
[3] abbreviates: @ 10 (concentration unit not given).
Setting [4] is: @ 1 (concentration unit not given).
The mark [5] stands for this setting: @ 100 (concentration unit not given).

As a reminder, the EC50 is the midpoint of the concentration-response curve. Regarding `CCN(C(=O)[C@H](Cc1ccc(OC)cc1)Nc1nc2ccc(CNC(=O)OC(C)(C)C)c(C)c2c(=O)o1)c1ccccc1` [Example 7u, 1,1-Dimethylethyl[[2-[[2-(ethylphenylamino)-1S-[(4-methoxyphenyl)methyl]-2-oxoethyl]amino]-5-methyl-4-oxo-4H-3,1-benzoxazin-6-yl]methyl]carbamate], the “HLE, % @ concentration” value in assay [1] (setting [3]) is 75% @ 10. Also, the EC50 in assay [2] stood at 35 µM.
Regarding `Cc1c(CNC(=O)OC(C)(C)C)ccc2nc(N[C@@H](Cc3ccccc3)C(=O)N(C)CCc3ccccc3)oc(=O)c12` [Example 7v, 1,1-Dimethylethyl[[5-methyl-2-[[2-[methyl(2-phenylethyl)amino]-2-oxo-1S-(phenylmethyl)ethyl]amino]-4-oxo-4H-3,1-benzoxazin-6-yl]methyl]carbamate], the “HLE, % @ concentration” value in assay [1] (setting [3]) is reported as 53% @ 10. The EC50 in assay [2] is 14 µM.
In the case of `Cc1c(CNC(=O)OCc2ccccc2)ccc2nc(N[C@@H](Cc3ccccc3)C(=O)N(C)CCc3ccccc3)oc(=O)c12` [Example 9dd, Phenylmethyl[[5-methyl-2-[[2-[methyl(2-phenylethyl)amino]-2-oxo-1S-(phenylmethyl)ethyl]amino]-4-oxo-3,1-benzoxazin-6-yl]methyl]carbamate], the “HLE, % @ concentration” value in assay [1] (setting [3]) is 78% @ 10. Moreover, the EC50 in assay [2] was found to be 45 µM.
As for `CCOC(=O)NCc1ccc2nc(N[C@@H](Cc3ccc(OC)cc3)C(=O)N(C)Cc3ccccc3)oc(=O)c2c1C` [Example 9g, Ethyl[[2-[[1S-[(4-methoxyphenyl)methyl]-2-[methyl(phenylmethyl)amino]-2-oxoethyl]amino]-5-methyl-4-oxo-4H-3,1-benzoxazin-6-yl]methyl]carbamate], in assay [1] (setting [3]), the “HLE, % @ concentration” value is recorded as 27% @ 10. Moreover, in assay [2], the EC50 was 15 µM.
On the same counts, the results for `COc1ccc(C[C@H](Nc2nc3ccc(CNC(=O)OCC(C)C)c(C)c3c(=O)o2)C(=O)N(C)Cc2ccccc2)cc1` [Example 9h, 2-Methylpropyl[[2-[[1S-[(4-methoxyphenyl)methyl]-2-[methyl(phenylmethyl)amino]-2-oxoethyl]amino]-5-methyl-4-oxo-4H-3,1-benzoxazin-6-yl]methyl]carbamate] are 45% @ 10 and 14 µM.
The corresponding values for `CCOC(=O)NCc1ccc2nc(N[C@@H](Cc3ccccc3)C(=O)N(C)Cc3ccccc3)oc(=O)c2c1C` [Example 9k, Ethyl[[5-methyl-2-[[2-[methyl(phenylmethyl)amino]-2-oxo-1S-(phenylmethyl)ethyl]amino]-4-oxo-4H-3,1-benzoxazin-6-yl]methyl]carbamate] are 29% @ 10 and 11 µM.
In the case of `COc1ccc(C[C@H](Nc2nc3ccc(CNC(=O)CC(C)(C)C)c(C)c3c(=O)o2)C(=O)N(C)Cc2ccccc2)cc1` [Example 9m, αS-[[6-[[(3,3-Dimethyl-1-oxobutyl)amino]methyl]-5-methyl-4-oxo-4H-3,1-benzoxazin-2-yl]amino]-4-methoxy-N-methyl-N-(phenylmethyl)benzenepropanamide], the “HLE, % @ concentration” value in assay [1] (setting [4]) is listed as 73% @ 1. Besides, the EC50 in assay [2] amounted to 14 µM.
With `COc1ccc(C[C@H](Nc2nc3ccc(CNC(=O)Cc4ccc(N(C)C)cc4)c(C)c3c(=O)o2)C(=O)N(C)Cc2ccccc2)cc1` [Example 9o, αS-[[6-[[[[4-(Dimethylamino)phenyl]acetyl]amino]methyl]-5-methyl-4-oxo-4H-3,1-benzoxazin-2-yl]amino]-4-methoxy-N-methyl-N-(phenylmethyl)benzenepropanamide], in assay [1] (setting [4]), the “HLE, % @ concentration” value is 73% @ 1. Also, the concentration for a half-maximal effect (EC50) in assay [2] was 14 µM.
Regarding `CCN(Cc1ccccc1)C(=O)[C@H](Cc1ccc(OC)cc1)Nc1nc2ccc(CNC(=O)OCc3ccccc3)c(C)c2c(=O)o1` [Example 9p, Phenylmethyl[[2-[[2-[ethyl(phenylmethyl)amino]-1S-[(4-methoxyphenyl)methyl]-2-oxoethyl]amino]-5-methyl-4-oxo-3,1-benzoxazin-6-yl]methyl]carbamate], the “HLE, % @ concentration” value in assay [1] (@ 6 (concentration unit not given)) was 45% @ 6. The EC50 in assay [2] is over 100 µM.
In the case of `Cc1c(CNC(=O)OCc2ccccc2)ccc2nc(N[C@@H](Cc3ccccc3)C(=O)N(C)Cc3ccccc3)oc(=O)c12` [Example 9r, Phenylmethyl[[5-methyl-2-[[2-[methyl(phenylmethyl)amino]-2-oxo-1S-(phenylmethyl)ethyl]amino]-4-oxo-4H-3,1-benzoxazin-6-yl]methyl]carbamate], the “HLE, % @ concentration” value in assay [1] (setting [4]) came to 47% @ 1. In addition, the EC50 in assay [2] stood at 14 µM.
As for `Cc1c(CNC(=O)c2ccccn2)ccc2nc(N[C@@H](Cc3ccccc3)C(=O)N(C)Cc3ccccc3)oc(=O)c12` [Example 9s, N-[[5-Methyl-2-[[2-[methyl(phenylmethyl)amino]-2-oxo-1S-(phenylmethyl)ethyl]amino]-4-oxo-4H-3,1-benzoxazin-6-yl]methyl]pyridine-2-carboxamide], the “HLE, % @ concentration” value in assay [1] (setting [3]) came to 55% @ 10. The EC50 in assay [2] turned out to be 7.5 µM.
On to `COC(=O)[C@H](Cc1ccccc1)Nc1nc2ccc(NC(=O)CCC(=O)O)c(C)c2c(=O)o1` [Example 11d, N-[6-[[(2-Carboxyethyl)carbonyl]amino]-5-methyl-4-oxo-4H-3,1-benzoxazin-2-yl]-L-phenylalanine, methyl ester], for which, in assay [1] (setting [5]), the “HLE, % @ concentration” value turned out to be 76% @ 100. Also, in assay [2], the EC50 was over 100 µM.
On the same counts, the results for `Cc1c(NC(=O)c2ccco2)ccc2nc(N[C@@H](C)c3ccccc3)oc(=O)c12` [Example 11k, 6-[[(2-Furanyl)carbonyl]amino]-5-methyl-2-[[(1S)-phenylethyl]amino]-4H-3,1-benzoxazin-4-one] are 63% @ 100 and 65 µM.
Turning to `COc1ccc(C[C@H](Nc2nc3ccc(NC(=O)c4ccccn4)c(C)c3c(=O)o2)C(=O)N(C)Cc2ccccc2)cc1` [Example 11p, N-[2-[[1S-[(4-Methoxyphenyl)methyl]-2-[-methyl(phenylmethyl)amino]-2-oxoethyl]amino]-5-methyl-4-oxo-4H-3,1-benzoxazin-6-yl]pyridine-2-carboxamide], the “HLE, % @ concentration” value in assay [1] (setting [3]) turned out to be 40% @ 10. Further, in assay [2], the EC50 came to 8.5 µM.
As to `COc1ccc(C[C@H](Nc2nc3ccc(NC(=O)c4ccco4)c(C)c3c(=O)o2)C(=O)N(C)Cc2ccccc2)cc1` [Example 11u, N-[2-[[1S-[(4-Methoxyphenyl)methyl]-2-[methyl(phenylmethyl)amino]-2-oxoethyl]amino]-5-methyl-4-oxo-4H-3,1-benzoxazin-6-yl]furan-2-carboxamide], the “HLE, % @ concentration” value in assay [1] (setting [3]) was 19% @ 10. Moreover, the EC50 in assay [2] came to 18 µM.
For the molecule `Cc1c(CNC(=O)Nc2ccccc2)ccc2nc(N[C@@H](Cc3ccccc3)C(=O)N(C)Cc3ccccc3)oc(=O)c12` [Example 12f, N-Methyl-αS-[[5-methyl-4-oxo-6-[[[(phenylamino)carbonyl]amino]methyl]-4H-3,1-benzoxazin-2-yl]amino]-N-(phenylmethyl)benzenepropanamide], the “HLE, % @ concentration” value in assay [1] (setting [4]) is on record as 55% @ 1. Moreover, the EC50 in assay [2] was found to be 14 µM.
Take `Cc1c(CNC(=O)N[C@H](C)c2ccccc2)ccc2nc(N[C@@H](Cc3ccccc3)C(=O)N(C)Cc3ccccc3)oc(=O)c12` [Example 12g]: the “HLE, % @ concentration” value in assay [1] (setting [4]) was determined as 45% @ 1. In addition, the EC50 in assay [2] amounted to 30 µM.
As to `Cc1c(CNC(=O)NCc2ccccc2)ccc2nc(N[C@@H](Cc3ccccc3)C(=O)N(C)Cc3ccccc3)oc(=O)c12` [Example 12h, N-Methyl-αS-[[5-methyl-4-oxo-6-[[[[(phenylmethyl)amino]carbonyl]amino]methyl]-4H-3,1-benzoxazin-2-yl]amino]-N-(phenylmethyl)benzenepropanamide], the “HLE, % @ concentration” value in assay [1] (setting [4]) turned out to be 58% @ 1. Also, the EC50 in assay [2] amounted to 18 µM.
As for `Cc1c(CNC(=O)N(C)c2ccccc2)ccc2nc(N[C@@H](Cc3ccccc3)C(=O)N(C)Cc3ccccc3)oc(=O)c12` [Example 12i, N-Methyl-αS-[[5-methyl-6-[[[(methylphenylamino)carbonyl]amino]methyl]-4-oxo-4H-3,1-benzoxazin-2-yl]amino]-N-(phenylmethyl)benzenepropanamide], in assay [1] (setting [4]), the “HLE, % @ concentration” value was 47% @ 1. Further, in assay [2], the EC50 came out at 6 µM.
The corresponding values for `COc1ccc(C[C@H](Nc2nc3ccc(CNC(=O)NCc4ccccc4)c(C)c3c(=O)o2)C(=O)N(C)Cc2ccccc2)cc1` [Example 12j, 4-Methoxy-N-methyl-αS-[[5-methyl-4-oxo-6-[[[[(phenylmethyl)amino]carbonyl]amino]methyl]-4H-3,1-benzoxazin-2-yl]amino]-N-(phenylmethyl)benzenepropanamide] are 63% @ 1 and 17 µM.
Regarding `COc1ccc(C[C@H](Nc2nc3ccc(NS(=O)(=O)c4ccccc4)c(C)c3c(=O)o2)C(=O)N(C)Cc2ccccc2)cc1` [Example 13c, 4-Methoxy-N-methyl-αS-[[5-methyl-4-oxo-6-[(phenylsulfonyl)amino]-4H-3,1-benzoxazin-2-yl]amino]-N-(phenylmethyl)benzenepropanamide], the “HLE, % @ concentration” value in assay [1] (setting [3]) was determined as 39% @ 10. Also, the 50% effective concentration (EC50) in assay [2] is 10 µM.
